How the values were obtained:
[1] = LNP particle size, polydispersity index and charge by Zeta Sizer; format: physicochemical; conditions: LNP lipid:DOPE:Cholesterol:DMG-PEG 35:20:43.5:1.5, firefly luciferase saRNA; for Polydispersity Index (PI) / Z-average (nm): N/P approx. 40/1
Method: Cationic lipids, DOPE, Cholesterol and DMG-PEG lipid were solubilized in ethanol or DMSO at a molar ratio of 35:20:43.5:1.5 and a concentration of 100:25:20:25 μg/μL for C12-200 or 170:25:20:25 μg/μL for the comparator lipids. Lipid nanoparticles (LNP) were prepared by targeting an N/P ratio of approximately 40/1 with saRNA. Briefly, the firefly luciferase saRNA of approximately 9659 nucleotides was diluted to 0.5 mg/mL in 5 mM citrate buffer, pH 4.5. Microfluidic mixer (Ignite from Precision Nanosystems, California, USA) was used to mix the lipid solution with the saRNA aqueous solution at a ratio of about 1:3 (vol/vol) with total flow rates above 10 ml/min. The ethanol was then removed, and the external buffer replaced with 10 mM TRIS-HCL, PH 7.4, by dialysis. Finally, the lipid nanoparticles were filtered through a 0.2 μm pore sterile filter. Lipid nanoparticle particle size was 50-150 nm diameter and polydispersity index (PI) of 0.1-0.4 as determined by Zeta Sizer (Malvern Panalytical, UK). The charge of the formulation was also measured by Zeta Sizer and ranged between 20 to −20 mV.

[2] = saRNA loading / encapsulation efficiency, Quant-IT RiboGreen assay; format: physicochemical; conditions: LNP lipid:DOPE:Cholesterol:DMG-PEG 35:20:43.5:1.5, firefly luciferase saRNA
Method: The saRNA loading in LNP formulations was quantified using a Quant-IT RiboGreen assay (Thermo Fisher Scientific, Waltham, Massachusetts, USA) as previously described. 14 samples were diluted tenfold in 1x Tris HCL-EDTA (TE) buffer (10 mM Tris-HCL, 1 mM EDTA, pH 7.5) with or without 2% (v/v) Triton X-100 (Sigma-Aldrich, Saint Louis, Missouri, USA). Standard solutions were also prepared in 1xTE with or without 2% (v/v) Triton X-100 to account for any variation in fluorescence. The assay was performed according to the manufacturer's protocol. Samples were loaded on a black 96-well plate and analysed for fluorescence on a microplate reader (Tecan Infinite® 200 PRO) at an excitation of 485 nm and emission at 528 nm. Encapsulation efficiency was calculated between 80-100%.

[3] = Weight evolution of the animals following administration of LNPs; format: in vivo; conditions: female SWISS mice
Method: (§1) Female SWISS mice (6 weeks old) were purchased from Janvier Laboratories (Paris, France) and kept in individually ventilated cages with access to food and water ad libitum. Mice were anesthetized with isoflurane (Zoetis, Louvain-La-Neuve, Belgium) (5% for induction and 2% for maintenance) and intramuscularly injected with a total of 1 μg in 100 μL Tris-HCL (50 μL per leg) LNP-formulated luciferase saRNA (for each group n=7). The expression of the luciferase induced bioluminescence was measured via non-invasive In vivo bioluminescent imaging (In vivo Imaging System (IVIS) Lumina III, Perkin Elmer, Waltham, Massachusetts, USA), 10 minutes after subcutaneous injection of […] of D-luciferin (GoldBio, Saint Louis, Missouri, USA, #LUCK-1G) were measured in day 0 (before injection), day 1, day 3, day 5, day 7, day 10, day 15 and day 20.

[4] = tested on: expression of the luciferase saRNA; assay: In vivo bioluminescent imaging after intramuscular injection of LNP-formulated luciferase saRNA; conditions: 1 μg LNP-formulated luciferase saRNA intramuscularly, female SWISS mice
Method: as §1

[5] = Day 1, 1 μg LNP-formulated saRNA intramuscularly
[6] = Day 3, 1 μg LNP-formulated saRNA intramuscularly
[7] = Day 5, 1 μg LNP-formulated saRNA intramuscularly
[8] = Day 7, 1 μg LNP-formulated saRNA intramuscularly
[9] = Day 10, 1 μg LNP-formulated saRNA intramuscularly
[10] = Day 15, 1 μg LNP-formulated saRNA intramuscularly
[11] = Day 20, 1 μg LNP-formulated saRNA intramuscularly

Row | Compound | Zetapotential (mV) [1] | Polydispersity Index (PI) [1] | Z-average (nm) [1] | Encapsulation (%) [2] | Weight ([3]; Day 0) | Weight [3, 5] | Weight [3, 6] | Weight [3, 7] | Weight [3, 8] | Weight [3, 9] | Weight [3, 10] | Weight [3, 11] | Bioluminescence expression of LNPs ([4]; Day 1) | Bioluminescence expression of LNPs ([4]; Day 3) | Bioluminescence expression of LNPs ([4]; Day 5) | Bioluminescence expression of LNPs ([4]; Day 7) | Bioluminescence expression of LNPs ([4]; Day 10) | Bioluminescence expression of LNPs ([4]; Day 15) | Bioluminescence expression of LNPs ([4]; Day 20)
1 | CCCCCCCCCCCCCCOC(=O)CCN(CCC(=O)OCCCCCCCCCCCCCC)CCN1CCN(CCN(CCC(=O)OCCCCCCCCCCCCCC)CCC(=O)OCCCCCCCCCCCCCC)CC1 [Comparator 1 (C1), reference compound] | 9.07 mV | 0.16 | 70.96 nm | 99.03% | 26.56 g | 25.99 g | 27.21 g | 27.59 g | 27.09 g | 27.17 g | 29.43 g | 30.11 g | – | – | – | – | – | – | –
2 | CCCCCCC(CCCC)C(=O)OCCCCCCN(CCCCCCOC(=O)C(CCCC)CCCCCC)CCN(CCCCCCOC(=O)C(CCCC)CCCCCC)CCN1CCN(CCN(CCCCCCOC(=O)C(CCCC)CCCCCC)CCCCCCOC(=O)C(CCCC)CCCCCC)CC1 (centres unmarked) [Compound 9-28, ((2-(4-(2-((2-(bis(6-((2-butyloctanoyl)oxy)hexyl)amino)ethyl) (6-((2-butyloctanoyl)oxy)hexyl)amino)ethyl)piperazin-1-yl)ethyl)azanediyl)bis(hexane-6,1-diyl)bis(2-butyloctanoate)] | – | – | – | – | 28.36 g | 27.19 g | 29.44 g | 29.17 g | 29.37 g | 29.39 g | 31.43 g | 32.46 g | 1.01E+08 | 8.67E+08 | 9.45E+08 | 5.65E+08 | 2.08E+06 | 8.15E+04 | 3.35E+04
3 | CCCCCCCCC(CCCCCC)C(=O)OCCCCCCN(CCCCCCOC(=O)C(CCCCCC)CCCCCCCC)CCN(CCCCCCOC(=O)C(CCCCCC)CCCCCCCC)CCN1CCN(CCN(CCCCCCOC(=O)C(CCCCCC)CCCCCCCC)CCCCCCOC(=O)C(CCCCCC)CCCCCCCC)CC1 (centres unmarked) [Compound 9-31, ((2-(4-(2-((2-(bis(6-((2-hexyldecanoyl)oxy)hexyl)amino)ethyl) (6-((2-hexyldecanoyl)oxy)hexyl)amino)ethyl)piperazin-1-yl)ethyl)azanediyl)bis (hexane-6,1-diyl)bis(2-hexyldecanoate)] | – | – | – | – | 27.70 g | 26.17 g | 28.46 g | 27.66 g | 28.29 g | 28.27 g | 29.76 g | 30.90 g | 3.10E+07 | 2.74E+08 | 5.31E+08 | 2.16E+08 | 2.22E+06 | 2.46E+05 | 2.71E+04
4 | CCCCCCCCC(CCCCCC)C(=O)OCCN(CCOC(=O)C(CCCCCC)CCCCCCCC)CCN1CCN(CCN(CCOC(=O)C(CCCCCC)CCCCCCCC)CCOC(=O)C(CCCCCC)CCCCCCCC)CC1 (centres unmarked) [Compound 9-35, ((piperazine-1,4-diylbis(ethane-2,1-diyl))bis(azanetriyl))tetrakis(ethane-2,1-diyl)tetrakis(2-hexyldecanoate)] | – | – | – | – | 30.01 g | 30.06 g | 30.43 g | 29.87 g | 30.30 g | 31.23 g | 32.13 g | 32.23 g | 8.83E+05 | 9.99E+07 | 5.92E+07 | 6.45E+07 | 5.62E+07 | 6.82E+05 | 2.44E+05
5 | CCCCCCC(CCCC)C(=O)NCCCCCCN(CCCCCCNC(=O)C(CCCC)CCCCCC)CCN(CCCCCCNC(=O)C(CCCC)CCCCCC)CCN1CCN(CCN(CCCCCCNC(=O)C(CCCC)CCCCCC)CCCCCCNC(=O)C(CCCC)CCCCCC)CC1 (centres unmarked) [Compound 9-40, N,N'-(((2-(4-(2-((2-(bis(6-(2-butyloctanamido)hexyl)amino)ethyl) (6-(2-butyloctanamido)hexyl)amino)ethyl)piperazin-1-yl)ethyl)azanediyl)bis(hexane-6,1-diyl))bis(2-butyloctanamide)] | – | – | – | – | 30.11 g | 29.54 g | 29.41 g | 29.19 g | 30.31 g | 30.51 g | 31.09 g | 32.37 g | 6.07E+07 | 6.79E+08 | 1.14E+09 | 8.88E+08 | 2.00E+07 | 1.32E+06 | 2.64E+05
6 | CCCCCCC(CCCC)C(=O)NCCCCCCN(CCCCCCNC(=O)C(CCCC)CCCCCC)CCN1CCN(CCN(CCCCCCNC(=O)C(CCCC)CCCCCC)CCCCCCNC(=O)C(CCCC)CCCCCC)CC1 (centres unmarked) [Compound 9-41, N, N', N″, N″'-(((piperazine-1,4-diylbis(ethane-2,1-diyl))bis(azanetriyl))tetrakis(hexane-6,1-diyl))tetrakis(2-butyloctanamide)] | – | – | – | – | 29.19 g | 29.19 g | 29.43 g | 29.21 g | 30.44 g | 31.06 g | 31.26 g | 31.77 g | – | – | – | – | – | – | –
7 | CCCCCCCCCCC(O)CN(CCN1CCN(CCN(CC(O)CCCCCCCCCC)CC(O)CCCCCCCCCC)CC1)CCN(CC(O)CCCCCCCCCC)CC(O)CCCCCCCCCC (centres unmarked) [Compound C12-200, 1,1′-((2-(4-(2-((2-(bis (2-hydroxydodecyl)amino)ethyl) (2-hydroxydodecyl)amino)ethyl)piperazin-1-yl)ethyl)azanediyl) bis(dodecan-2-ol), reference compound] | 9.59 mV | 0.19 | 94.03 nm | 97.46% | 28.61 g | 27.17 g | 28.62 g | 28.98 g | 28.97 g | 29.23 g | 30.16 g | 31.23 g | – | – | – | – | – | – | –
